Entries after “also recorded” stand apart in the source; their conditions may differ. Bridge positions count the residues as written; N and C are the ends. Peptide text beside a SMILES is read from it.
Key:
human ASIC3 = target: T1, human ASIC3 (Homo sapiens, UniProt Q9UHC3); assay: Inhibition of sustained hASIC3 current, two-electrode voltage clamp, Xenopus laevis oocytes; format: cell-based; settings: for Hill coefficient, sustained currents / IC50: hASIC3 in X. laevis oocytes, mean ± SEM (n = 4–6); for IC50: compound applied with 3.5 s pH stimulus, holding -50 mV, logistic fit, read-out: IC50, sustained currents
T1 construct: host or cells: Xenopus laevis oocytes (cRNA injection)
T1 sequence (Q9UHC3 1-531): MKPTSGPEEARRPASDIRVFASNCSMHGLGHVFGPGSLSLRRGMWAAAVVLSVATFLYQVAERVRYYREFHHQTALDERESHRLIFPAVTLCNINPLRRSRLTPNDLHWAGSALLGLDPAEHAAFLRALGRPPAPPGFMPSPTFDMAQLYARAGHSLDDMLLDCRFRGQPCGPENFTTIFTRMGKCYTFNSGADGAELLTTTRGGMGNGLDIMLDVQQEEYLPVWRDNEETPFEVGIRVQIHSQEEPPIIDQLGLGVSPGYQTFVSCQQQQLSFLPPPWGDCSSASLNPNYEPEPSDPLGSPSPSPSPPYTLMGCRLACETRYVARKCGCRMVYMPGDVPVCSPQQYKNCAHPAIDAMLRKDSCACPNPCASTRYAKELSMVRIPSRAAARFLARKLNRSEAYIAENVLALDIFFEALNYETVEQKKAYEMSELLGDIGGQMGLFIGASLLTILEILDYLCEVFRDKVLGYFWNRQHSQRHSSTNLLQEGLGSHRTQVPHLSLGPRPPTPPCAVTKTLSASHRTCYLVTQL
From the text: Whole-cell currents were induced by pH drops and recorded at the holding potential −50 mV. (A) Effect of ligands on the transient component of current at conditioning pH 7.8. The control trace is shown first; (B) Effect of ligands on the sustained component at conditioning pH 7.3. The black line is the control trace, and the red line is the trace of activation in the presence of a ligand. Dose-response curves for transient (C) and sustained (D) currents’ inhibitions are shown. Data are shown as mean ± SEM (n = 4–6) and fitted with the logistic equation (solid lines).
The analysis of a sustained component of the current was carried out in a bath solution (pH 7.3) where the transient component of the current was completely desensitized by protons. The pH activation stimulus (3.5 s) was applied in the presence of the testing compound (Figure 1B).
X. laevis oocytes were removed surgically and defolliculated by collagenase (Sigma-Aldrich, Moscow, Russia). Oocytes were injected with 2.5 to 10 ng of human ASIC3 cRNA (AF057711.1). […] To induce transient and/or sustained currents, two different protocols with different conditioning pH were used. Microelectrodes were filled with a 3 M KCl solution. The working buffer solution was ND-96 titrated by NaOH to pH 7.8 or 7.3. The solution for the pH shift was constructed based on the ND-96 solution, in which 5 mM HEPES was replaced with 10 mM acetic acid (pH 4.0) or 10 mM MES (pH 5.5) in a supplementary 0.1% BSA solution. The duration of the activation pulses was 3.5 s.
The analysis of the electrophysiological data was performed using the OriginPro 8.6 programme.

mice [1] = assay: CFA-induced thermal hyperalgesia; format: in vivo, CD-1 mice; settings: for Effect in CFA test at lowest dose / Dose dependence of effect, thermal hyperalgesia / Dose of maximal effect, thermal hyperalgesia / Reversal of thermal hyperalgesia, 1 mg/kg compared with 0.001–0.002 mg/kg / Thermal hyperalgesia result (in words): intramuscular; for Effect confirmed in independent experiment: sevanol 0.01 mg/kg, Ugr9-1 0.02 mg/kg, data not shown
Procedure: CFA-induced thermal hyperalgesia is a result of different inflammatory pathways’ action on thermal sensitivity of the paw. Injection of CFA into the hind paw provokes increased sensitivity to noxious mechanical and thermal stimuli together with swelling of the paw due to the inflammatory process. […] For APETx2 (Figure 4B), sevanol (Figure 4C), and Ugr9-1 (Figure 4D), the dose dependency of the analgesic effect was evaluated.
Figure 4 Effect of ligands on the CFA-induced thermal hyperalgesia test. Test was performed 2 h after intramuscular administration of ASIC3 antagonists. (A) Comparison between ligands at the dose of 1 mg/kg; (B–D) Dose-dependent chart of ligands’ effect. […] Results are presented as mean ± SEM (n = 7–8). * p < 0.05, ** p < 0.01, *** p < 0.001 versus saline group (ANOVA followed by a Tukey’s test).
(§1) Adult male CD-1 mice (Animal Breeding Facility Branch of Shemyakin-Ovchinnikov Institute of Bioorganic Chemistry, Russian Academy of Sciences, Pushchino, Russia) weighing 20–25 g were used. Animals that originally passed clinical examination that confirmed no deviations in health were divided into groups (at least eight male mice per group) using the principle of randomization. The average body weight of animals in each group was not statistically different between groups. Animals were housed at room temperature (23 ± 2 °C) and subjected to a 12-h light-dark cycle with food and water available ad libitum. All experiments were performed after receiving approval from the Animal Care and Use Committee of the Branch of the Institute of Bioorganic Chemistry, Russian Academy of Sciences (IBCh RAS) (Pushchino, Russia Federation). The samples were administered intramuscularly 2 h before testing (4 h in the open field test). The initial dose of 1 mg/kg was investigated for all samples, which was further reduced 5, 50, and 500 times for peptides.
(§2) CFA suspended in an oil/saline (1:1) emulsion was injected into the dorsal surfaces of the left hind paws of mice (20 µL/paw) 24 h before the samples’ intramuscular injection. The control mice received 20 µL of saline (intraplantar). The paw withdrawal latencies to thermal stimulation (53 °C) were measured 2 h after the sample injection. The paw diameter was evaluated before the CFA injection, before the samples and saline administration, and 2, 4, and 24 h after the administration using a digital calliper.
(§3) The data significance in animal tests was determined by an analysis of variance followed by a Tukey’s test. Data are presented as the mean ± SEM.

mice [2] = assay: CFA-induced paw oedema; format: in vivo, CD-1 mice; settings: n = 7–8; for Reduction of inflammation (paw oedema): within 24 h; for Anti-inflammatory effect within 4 h: intramuscular, within 4 h after administration
Procedure: To reveal the anti-inflammatory effects of ASIC3 antagonists, paw oedema changes were also evaluated (Figure 5). […] APETx2 in a dose of 1 mg/kg reduced paw oedema by 16%, 24%, and 44% compared to the control group at 2, 4, and 24 h after administration, respectively. APETx2 at 0.2 mg/kg reduced inflammation by approximately 20% only 24 h after administration.
Figure 5 Anti-inflammatory effect of ligands. […] Results are presented as mean ± SEM (n = 7–8). * p < 0.05, ** p < 0.01, *** p < 0.001 versus saline group (ANOVA followed by a Tukey’s test).
as §1, §2, §3

SMILES	Rank of potency, sustained component inhibition (human ASIC3)	Inhibition of sustained current (in words) (human ASIC3; conditioning pH 7.3)	Hill coefficient, sustained currents (human ASIC3; conditioning pH 7.3)	inhibition at 50 µM (human ASIC3; pH 7.3, read-out: Inhibition of sustained current amplitude at saturation concentration)	Effect in CFA test at lowest dose (mice [1]; 0.002 mg/kg (Ugr9-1), 2 h before)	Dose dependence of effect, thermal hyperalgesia (mice [1]; 2 h before, n = 7–8)	Dose of maximal effect, thermal hyperalgesia (mice [1]; 2 h before, n = 7–8)	Reversal of thermal hyperalgesia, 1 mg/kg compared with 0.001–0.002 mg/kg (mice [1]; 2 h before, n = 7–8)	Thermal hyperalgesia result (in words) (mice [1]; 2 h before, n = 7–8)	Effect confirmed in independent experiment (mice [1])	Reduction of inflammation (paw oedema) (mice [2]; 0.02 mg/kg intramuscular)	Anti-inflammatory effect within 4 h (mice [2])	inhibition at 3000 µM (human ASIC3; about 3 mM, conditioning pH 7.3, read-out: Inhibition of sustained current amplitude at saturation concentration)	IC50 (human ASIC3; conditioning pH 7.3)	Reversal of thermal hyperalgesia, comparison at 1 mg/kg (mice [1]; 1 mg/kg intramuscular, 2 h before, hot plate 53 °C, n = 7–8)	Inhibition of sustained current amplitude at saturation concentration (human ASIC3; about 3 mM, conditioning pH 7.3)	Inhibition of sustained current (in words) (human ASIC3; conditioning pH 7.3, listed as Sevanol)	Effect in CFA test at lowest dose (mice [1]; 0.001 mg/kg (sevanol), 2 h before)	Reduction of inflammation (paw oedema) (mice [2]; 2.5 mg/kg intramuscular)
CC[C@H](C)[C@H](N)C(=O)N[C@@H](CO)C(=O)N[C@H](C(=O)N[C@@H](CC(=O)O)C(=O)N1CCC[C@H]1C(=O)N1CCC[C@H]1C(=O)N[C@H]1CSSC[C@@H](C(=O)NCC(=O)N[C@@H](C)C(=O)N[C@H](C(=O)O)C(C)C)NC(=O)CNC(=O)[C@H](Cc2ccc(O)cc2)NC(=O)[C@H](C)NC(=O)[C@H](CC(=O)O)NC(=O)[C@H](Cc2ccc(O)cc2)NC(=O)[C@H](C(C)C)NC(=O)[C@@H]2CSSC[C@H](NC(=O)[C@H](Cc3ccccc3)NC(=O)[C@H](CCCNC(=N)N)NC1=O)C(=O)N[C@@H](Cc1ccc(O)cc1)C(=O)N[C@@H](Cc1c[nH]cn1)C(=O)N[C@@H](CCCNC(=N)N)C(=O)N[C@@H](CC(=O)O)C(=O)NCC(=O)N[C@@H](CO)C(=O)NCC(=O)N[C@@H](CC(N)=O)C(=O)N2)[C@@H](C)CC [Ugr9-1] (H-ISIDPPCRFCYHRDGSGNCVYDAYGCGAV-OH; disulfide 7-26, 10-19; N-terminus and C-terminus assumed)	Ugr9-1 > sevanol > diclofenac	decreased transient and sustained components of the current	1.74 ± 0.51	~50%	absence of the effect	bell-shaped; also recorded: nonlinear dose response	0.02 mg/kg	did not differ significantly	reversed CFA-induced thermal hyperalgesia and prolonging withdrawal latency of the inflamed hind paw on a hot plate	confirmed in the independent experiment	31%	did not produce significant anti-inflammatory effects within 4 h							
O=C(O)Cc1ccccc1Nc1c(Cl)cccc1Cl [diclofenac, reference compound]	Ugr9-1 > sevanol > diclofenac	significantly weaker in their inhibitory potency when compared to peptide toxin Ugr9-1										did not produce significant anti-inflammatory effects within 4 h	~50%	856 ± 106 µM	equal potency in the reversal of thermal hyperalgesia, which exceeded the analgesic potency of sevanol and Ugr9-1				
O=C(O)C[C@H](C(=O)O)[C@@H](OC(=O)C1=Cc2cc(O)c(O)cc2[C@@H](c2ccc(O)c(O)c2)[C@@H]1C(=O)O[C@@H](C(=O)O)[C@H](CC(=O)O)C(=O)O)C(=O)O [sevanol]	Ugr9-1 > sevanol > diclofenac	decreased transient and sustained components of the current	2.4 ± 0.4			bell-shaped; also recorded: nonlinear dose response	0.01 mg/kg	did not differ significantly	reversed CFA-induced thermal hyperalgesia and prolonging withdrawal latency of the inflamed hind paw on a hot plate	confirmed in the independent experiment		did not produce significant anti-inflammatory effects within 4 h		259 ± 39 µM		approximately 50%	significantly weaker in their inhibitory potency when compared to peptide toxin Ugr9-1	absence of the effect	22%

Source: publication PMC6316600, “Analgesic Activity of Acid-Sensing Ion Channel 3 (ASIС3) Inhibitors: Sea Anemones Peptides Ugr9-1 and APETx2 versus Low Molecular Weight Compounds” (Marine Drugs, 2018)
